Assays:
[1] = tested on: Saccharomyces cerevisiae wild type strain BY4743; assay: AF1 combined gene expression and metabolite data mapped to KEGG reactions and pathways; format: cell-based; conditions: yeast AF1
From the text: In AF1, two different technologies were utilized: gene expression analysis (for examination of mRNA expression) and metabolite analysis. […] As noted previously, existing metabolic databases may be helpful in practicing the methods and systems of the present invention, but many databases include limitations that make their use in data analysis and pathway mapping less than straightforward. […] This caveat to KEGG makes it difficult to pinpoint the correct pathway when attempting to link a gene to a specific pathway. […] The pathway score indicates how meaningful the mapping is, or how likely it is to be correctly indicative of the pathway involved in the perturbation under examination. The method provides a pathway score based on perturbation levels of genes and/or compounds and the information content of each gene and/or compound in the pathway, i.e., a pathway score indicates the extent to which other pathways are mapped to a gene/compound. For example, imagine that two genes are perturbed in a particular experiment. One gene maps to only one pathway, giving a high degree of probability that the perturbed pathway is the one identified in the mapping. The second gene maps to three pathways. In the later example, there is only one-third the probability that the pathway identified in the mapping is the one perturbed. The present invention provides a method for calculating the pathway scores, so that more weight is given to a score of a gene or compound that maps to only one pathway than to a score of a gene or compound that maps to multiple pathways. […] Where n=the total number of genes in the pathway; ipath—count=the number of pathways containing a gene; and j=the number of genes in the pathway that are perturbed. Another factor to be considered when weighting a pathway score is the degree of perturbation. Degree of perturbation can be calculated, for example, based on a number of standard deviations from a norm, and included in an equation such as the one shown above, so that not only the number of pathways is taken into account, but also accounts for the amount of gene transcript or compound present as compared to a control. Compounds were also linked to pathways using the KEGG database. KEGG links 676 compounds measured in AF1 to a total of 92 pathways. Of the 676 compounds under consideration, 77 were detected in the AF1 samples. […] The multiple mapping feature of KEGG makes it difficult to pinpoint the correct pathway when trying to link a compound to a specific pathway. […] A pathway score calculation is applied to the compounds to account for both information content (number of pathways a compound maps to) and perturbation level. The data were then combined to determine the number of reactions showing an enzyme and at least one compound perturbed, and to determine the number of pathways having at least one enzyme and one perturbed compound perturbed. The results of the analysis are represented in Tables 16 and 17, and were difficult to interpret, illustrating that the ability to draw conclusions from compound mapping to pathways is limited when absent additional data.

[2] = tested on: Saccharomyces cerevisiae wild type strain BY4743; assay: AF1 metabolite analysis (GC-MS, LC-MS) of yeast cells treated with antifungal drugs; format: cell-based; set-up: Fold Change: scale not given here; conditions: for # Compounds perturbed by treatment: yeast, 2x MIC, two hours

C[C@@H]1[C@H](O)[C@@H](C)/C=C/C=C/C=C/C=C/C=C/C=C/C=C/[C@H](O[C@@H]2O[C@H](C)[C@@H](O)[C@H](N)[C@@H]2O)C[C@@H]2O[C@](O)(C[C@@H](O)C[C@@H](O)[C@H](O)CC[C@@H](O)C[C@@H](O)CC(=O)O[C@H]1C)C[C@H](O)[C@H]2C(=O)O [Amphoteracin B]
# Reactions (title: Number Of Pathways Having at Least One Enzyme and One Compound Perturbed) [1]: 37
# Reactions having an enzyme and at least one compound perturbed [1]: 54
# Compounds perturbed by treatment ([2]; P < 0.05): 16
# Compounds perturbed by treatment ([2]; P < 0.1): 21
Fold Change ([2]; metabolite 3-indolylacetonitri, platform nLC): −0.9998
Fold Change ([2]; metabolite 4-aminobenzoic acid, platform pLC): 0
Fold Change ([2]; metabolite 4-methylcatechol, platform nLC): 0
Fold Change ([2]; metabolite 4-methylcatechol, platform pLC): 0
Fold Change ([2]; metabolite 4ambutyrate/dimglyc, platform pLC): 0.01279
Fold Change ([2]; metabolite 4aminobutyrate/dimg, platform nLC): −0.1983
Fold Change ([2]; metabolite DL-aminoadipic acid, platform pLC): 0.4703
Fold Change ([2]; metabolite DLaminoadipic acid, platform nLC): 1.411
Fold Change ([2]; metabolite NacetylD-glucosamine, platform nLC): 0
Fold Change ([2]; metabolite NacetylD-glucosamine, platform pLC): 0
Fold Change ([2]; metabolite NacetylL-glutamate, platform nLC): −0.1078
Fold Change ([2]; metabolite NacetylL-glutamate, platform pLC): 0
Fold Change ([2]; metabolite NacetylL-ornithine, platform nLC): 0
Fold Change ([2]; metabolite NacetylL-ornithine, platform pLC): 1.319
Fold Change ([2]; metabolite decanoic acid, platform nLC): −0.08716
Fold Change ([2]; metabolite desmosterol, platform GC): 0
Fold Change ([2]; metabolite diaminopimelic acid, platform nLC): 0
Fold Change ([2]; metabolite diaminopimelic acid, platform pLC): 0
Fold Change ([2]; metabolite dihydrofolic acid, platform nLC): 0
Fold Change ([2]; metabolite dihydrofolic acid, platform pLC): 0
Fold Change ([2]; metabolite dipicolinic acid, platform pLC): 0
Fold Change ([2]; metabolite disaccaride1, platform GC): −1
Fold Change ([2]; metabolite disaccaride2, platform GC): −0.9977
Fold Change ([2]; metabolite disaccaride3, platform GC): −0.9977
Fold Change ([2]; metabolite ergosterol, platform GC): 2.303
Fold Change ([2]; metabolite estrone, platform nLC): 0
Fold Change ([2]; metabolite farnesol, platform nLC): 0
Fold Change ([2]; metabolite folic acid, platform nLC): 0
Fold Change ([2]; metabolite folic acid, platform pLC): 0
Fold Change ([2]; metabolite fucosterol, platform GC): −0.6553
Fold Change ([2]; metabolite fumaric/3m2oxobutan, platform nLC): 0.4423
Fold Change ([2]; metabolite gallic acid, platform nLC): 0.1622
Fold Change ([2]; metabolite gibberellic, platform nLC): 0
Fold Change ([2]; metabolite glucosamine-6PO4, platform nLC): −0.9951
Fold Change ([2]; metabolite glucosamine-6PO4, platform pLC): 0
Fold Change ([2]; metabolite glucosamine, platform pLC): 0
Fold Change ([2]; metabolite glutamate, platform pLC): 0.4341
Fold Change ([2]; metabolite glutamic/acetylseri, platform nLC): 0.1414
Fold Change ([2]; metabolite glutamine/lysine, platform nLC): 0.07919
Fold Change ([2]; metabolite glutamine/lysine, platform pLC): 0.3981
Fold Change ([2]; metabolite glutamine, platform GC): −0.9116
Fold Change ([2]; metabolite glutathione, platform pLC): −0.03348
Fold Change ([2]; metabolite glycanopyrose, platform GC): −0.958
Fold Change ([2]; metabolite glycerol, platform GC): −0.815
Fold Change ([2]; metabolite glycine, platform GC): 0.8807
Fold Change ([2]; metabolite guanine, platform nLC): 0
Fold Change ([2]; metabolite guanosine, platform nLC): 1.131
Fold Change ([2]; metabolite guanosine, platform pLC): 0.7598
Fold Change ([2]; metabolite hexadecanoic acid, platform GC): −0.2427
Fold Change ([2]; metabolite histidine, platform nLC): 0
Fold Change ([2]; metabolite histidine, platform pLC): 0
Fold Change ([2]; metabolite homogentisic/uric, platform nLC): 0
Fold Change ([2]; metabolite hydrocortisone, platform nLC): 0
Fold Change ([2]; metabolite hydrocortisone, platform pLC): 0
Fold Change ([2]; metabolite hypoxanthine, platform nLC): 0.1655
Fold Change ([2]; metabolite hypoxanthine, platform pLC): 0.2057
Fold Change ([2]; metabolite indole3-pyruvic acid, platform nLC): 0
Fold Change ([2]; metabolite inostol/glucos/sorb, platform nLC): −0.5905
Fold Change ([2]; metabolite iso citric acid, platform GC): −0.6183
Fold Change ([2]; metabolite isocitric/citric/qu, platform nLC): 2.549
Fold Change ([2]; metabolite isoleucine, platform GC): −0.9533
Fold Change ([2]; metabolite itaconic acid dimes, platform pLC): 0
Fold Change ([2]; metabolite jasmonic acid, platform nLC): 0
Fold Change ([2]; metabolite kinetin, platform nLC): 0
Fold Change ([2]; metabolite kinetin, platform pLC): 0
Fold Change ([2]; metabolite lactic acid, platform nLC): −0.02583
Fold Change ([2]; metabolite lanosterol, platform GC): −1
Fold Change ([2]; metabolite lauric acid, platform nLC): 0.1225
Fold Change ([2]; metabolite leucine/isoleucine/, platform nLC): 0.1319
Fold Change ([2]; metabolite leucine/isoleucine/, platform pLC): 0.2746
Fold Change ([2]; metabolite leucine, platform GC): −0.9443
Fold Change ([2]; metabolite luteolin, platform nLC): 0
Fold Change ([2]; metabolite luteolin, platform pLC): 0
Fold Change ([2]; metabolite lysine, platform GC): −0.3925
Fold Change ([2]; metabolite malic acid, platform GC): −0.963
Fold Change ([2]; metabolite malic acid, platform nLC): 0.6212
Fold Change ([2]; metabolite malonic acid, platform nLC): 0
Fold Change ([2]; metabolite mannitol, platform pLC): 0.4543
Fold Change ([2]; metabolite menthol*, platform nLC): −0.07013
Fold Change ([2]; metabolite methionine, platform nLC): 0
Fold Change ([2]; metabolite methionine, platform pLC): 0.3299
Fold Change ([2]; metabolite mevalonic acid lactone, platform GC): −0.1276
Fold Change ([2]; metabolite mevalonic lactone, platform pLC): −0.4606
Fold Change ([2]; metabolite niacinamide, platform pLC): 0
Fold Change ([2]; metabolite nicotinic acid, platform nLC): 0.3131
Fold Change ([2]; metabolite nicotinic acid, platform pLC): −0.9989
Fold Change ([2]; metabolite nopaline, platform nLC): 0.3342
Fold Change ([2]; metabolite nopaline, platform pLC): 0
Fold Change ([2]; metabolite octadecanoic acid, platform GC): 0.21
Fold Change ([2]; metabolite oleic acid, platform GC): −0.4593
Fold Change ([2]; metabolite oleic acid, platform nLC): 0.689
Fold Change ([2]; metabolite ornithine2, platform GC): −1
Fold Change ([2]; metabolite ornithine3, platform GC): −0.9853
Fold Change ([2]; metabolite ornithine, platform nLC): 2.534
Fold Change ([2]; metabolite ornithine, platform pLC): 0.5049
Fold Change ([2]; metabolite orotic acid, platform nLC): 8380
Fold Change ([2]; metabolite palmiteliadic acid, platform GC): 0.515
Fold Change ([2]; metabolite palmitic acid, platform nLC): 0.3979
Fold Change ([2]; metabolite phenylalanine, platform GC): −0.9797
Fold Change ([2]; metabolite phenylalanine, platform nLC): −0.1906

Reference: patent US20040019430A1, “Methods and systems for analyzing complex biological systems” (priority 2001, published 2004)
